Measurements reported in patent US20240287025A1, “TETRAHYDROQUINOLINE (THQ) COUMPOUNDS” (Centre National de la Recherche Scientifique, priority 2021, published 2024).

Experiments:
Brd4 BD1 = Brd4 BD1 (Homo sapiens (Human), UniProt O60885); assay: HTRF evaluation of bromodomain inhibitors, Brd4 BD1; format: binding; conditions: H4ac4 peptide 50 nM, 4 h at 4° C.
Method: (§1) HTRF reagents and buffers were purchased from Cisbio Bioassays. The assay used a terbium (Ill) cryptate donor reagent conjugated to an anti-GST antibody (MAb anti-GST-Tb; GSTTLA), a streptavidin-conjugated acceptor reagent (streptavidin-d2) and Cisbio proprietary buffers (EPlgeneous Binding Domain Diluent and Detection buffer, respectively). GST-tagged bromodomains (BDs) were expressed in E. coli and purified using standard procedures. Incubation of GST-tagged BDs with biotinylated acetylated H4 peptide (H4K5acK8acK12acK16ac, here named H4ac4) brings the donor and acceptor into close proximity and allows for a FRET reaction. GST-tagged proteins in 25 mM Hepes pH 7.5, 150 mM NaCl, 0.5 mM DTT were assayed at a final concentration of 5 nM. Biotinylated H4ac4 peptides were used at a final concentration of 50, 600 nM in assays involving Brd4 BD1, Brd4 BD2, respectively. The antibody-conjugated donor was used at 0.5 nM and the streptavidin-conjugated acceptor was used at ⅛ of the H4ac4 peptide concentration. Inhibitors were tested by performing an eleven-point dilution series with a maximal final concentration of […]. These concentrations allowed a fixed DMSO concentration at 0.2%, critical for a Z′ factor ≥0.8. Components were incubated at 4° C. for 4 h (BD1) or for 24 h (BD2). Experiments were performed in 384-well white plates (Greiner ref. 781080) and analyzed in a ClarioStar plate reader (BMG LABTECH, excitation at 330 nm and emission at 620 and 665 nm, corresponding to the donor and acceptor emission peaks, respectively; the 665/620 ratio is used to calculate the specific HTRF signal) with an integration delay of 60 μs and an integration time of 400 μs.

Brd4 BD2 = Brd4 BD2 (Homo sapiens (Human), UniProt O60885); assay: HTRF evaluation of bromodomain inhibitors, Brd4 BD2; format: binding; conditions: for IC50: HTRF, H4ac4 peptide 600 nM, 24 h at 4° C.; for Selectivity BD2/BD1: ratio of the BD1 and BD2 IC50
Method: as §1

Row | SMILES | IC50 (Brd4 BD1) [nM] | IC50 (Brd4 BD2) [nM] | Selectivity BD2/BD1 (Brd4 BD2)
1 | CC[C@H]1[C@@H](C)[C@H](n2cc(COCCOCCOCc3cn(C4c5cc(C(=O)OC)ccc5N(C(C)=O)[C@@H](CC)[C@H]4C)nn3)nn2)c2cc(C(=O)OC)ccc2N1C(C)=O (stereo partly drawn) [XV, Dimethyl-4,4′-((((oxybis(ethane-2,1-diyl))bis(oxy))bis(methylene))bis(1H-1,2,3-triazole-4,1-diyl))(2S,2'S,3R,3′R,4S,4'S)-bis(1-acetyl-2-ethyl-3-methyl-1,2,3,4-tetrahydroquinoline-6-carboxylate)] | 1670 | 2430 | 0.7
2 | C=CCCCC(=O)Nc1ccc(-c2ccc3c(c2)[C@@H](Nc2ncc(Cl)cn2)[C@H](C)[C@H](CC)N3C(C)=O)cc1 [XK, N-(4-((2S,3S,4S)-1-acetyl-4-((5-chloropyrimidin-2-yl)amino)-2-ethyl-3-methyl-1,2,3,4-tetrahydroquinolin-6-yl)phenyl)hex-5-enamide] | 3140 | 1330 | 2.4
3 | CC[C@@H]1[C@H](C)[C@@H](N=[N+]=[N-])c2cc(C(=O)OC)ccc2N1C(C)=O (single isomer, unassigned) [ent-27] | > 100000 | > 100000 | –
4 | CC[C@H]1[C@@H](C)C(n2cc(COCCOCc3cn(C4c5cc(C(=O)OC)ccc5N(C(C)=O)[C@@H](CC)[C@H]4C)nn3)nn2)c2cc(C(=O)OC)ccc2N1C(C)=O (stereo partly drawn) [XU, Dimethyl-4,4′-(((ethane-1,2-diylbis(oxy))bis(methylene))bis(1H-1,2,3-triazole-4,1-diyl))(2S,2'S,3R,3′R,4S,4'S)-bis(1-acetyl-2-ethyl-3-methyl-1,2,3,4-tetrahydroquinoline-6-carboxylate)] | 247 | 57 | 4.3
5 | CC[C@H]1[C@@H](C)[C@H](n2cc(COCCOCCOCCOCC#Cc3cccc4c3CN(C3CCC(=O)NC3=O)C4=O)nn2)c2cc(C(=O)OC)ccc2N1C(C)=O (stereo partly drawn) [YF, Methyl-(2S,3R,4S)-1-acetyl-4-(4-(14-(2-(2,6-dioxopiperidin-3-yl)-1-oxoisoindolin-4-yl)-2,5,8,11-tetraoxatetradec-13-yn-1-yl)-1H-1,2,3-triazol-1-yl)-2-ethyl-3-methyl-1,2,3,4-tetrahydroquinoline-6-carboxylate] | 17000 | 1330 | 12.7
6 | CC[C@H]1[C@@H](C)[C@H](n2cc(-c3ccc(OC)cc3)nn2)c2cc(C(=O)OC)ccc2N1C(C)=O [XM, Methyl (2S,3R,4S)-1-acetyl-2-ethyl-4-(4-(4-methoxyphenyl)-1H-1,2,3-triazol-1-yl)-3-methyl-1,2,3,4-tetrahydroquinoline-6-carboxylate] | 2980 | 563 | 5.3
7 | CC[C@H]1[C@@H](C)[C@H](N=[N+]=[N-])c2cc(C(F)(F)F)ccc2N1C(C)=O [YB, 1-((2S,3R,4S)-4-azido-2-ethyl-3-methyl-6-(trifluoromethyl)-3,4-dihydroquinolin-1(2H)-yl)ethan-1-one] | 67000 | 7570 | 8.8
8 | CC[C@@H]1[C@H](C)[C@@H](NC(=O)OC(C)C)c2cc(C(=O)OC)ccc2N1C(C)=O [ent-XJ] | > 100000 | 17700 | –
9 | CC[C@H]1[C@@H](C)[C@H](N=[N+]=[N-])c2cc(-c3ccc(NC(=O)CCCCCCC(=O)NO)cc3)ccc2N1C(C)=O [YH, N-(4-((2S,3R,4S)-1-acetyl-4-azido-2-ethyl-3-methyl-1,2,3,4-tetrahydroquinolin-6-yl)phenyl)-N-hydroxyoctanediamide] | – | – | 1.6
10 | CC[C@H]1[C@@H](C)[C@H](n2cc(COCCOCC#Cc3cccc4c3CN(C3CCC(=O)NC3=O)C4=O)nn2)c2cc(C(=O)OC)ccc2N1C(C)=O (stereo partly drawn) [YE, Methyl-(2S,3R,4S)-1-acetyl-4-(4-((2-((3-(2-(2,6-dioxopiperidin-3-yl)-1-oxoisoindolin-4-yl)prop-2-yn-1-yl)oxy)ethoxy)methyl)-1H-1,2,3-triazol-1-yl)-2-ethyl-3-methyl-1,2,3,4-tetrahydroquinoline-6-carboxylate] | 7870 | 486 | 16.2
11 | C=CCCCC(=O)Nc1ccc(-c2ccc3c(c2)[C@H](Nc2ncc(Cl)cn2)[C@@H](C)[C@@H](CC)N3C(C)=O)cc1 [ent-XK] | 6090 | 2020 | 3.0
12 | CC[C@H]1[C@@H](C)[C@H](n2cc(C3CCCCC3)nn2)c2cc(C(=O)OC)ccc2N1C(C)=O [XO, Methyl-(2S,3R,4S)-1-acetyl-4-(4-cyclohexyl-1H-1,2,3-triazol-1-yl)-2-ethyl-3-methyl-1,2,3,4-tetrahydroquinoline-6-carboxylate] | 5520 | 860 | 6.4
13 | C=CCCCC(=O)Nc1ccc(-c2ccc3c(c2)[C@H](n2cc(-c4ccccc4)nn2)[C@@H](C)[C@@H](CC)N3C(C)=O)cc1 [ent-XD] | 2300 | 677 | 3.4
14 | C=CCCCC(=O)Nc1ccc(-c2ccc3c(c2)[C@H](N=[N+]=[N-])[C@@H](C)[C@@H](CC)N3C(C)=O)cc1 [ent-XC] | 22400 | 4430 | 5.1
15 | C=CCCCC(=O)Nc1ccc(-c2ccc3c(c2)[C@@H](NC(=O)OC(C)C)[C@H](C)[C@H](CC)N3C(C)=O)cc1 [XI, Isopropyl-((2S,3S,4S)-1-acetyl-2-ethyl-6-(4-(hex-5-enamido)phenyl)-3-methyl-1,2,3,4-tetrahydroquinolin-4-yl)carbamate] | 2680 | 2170 | 1.2
16 | CC[C@H]1[C@@H](C)[C@H](n2cc(COCCOCCOCCOCCOCc3cn(C4c5cc(C(=O)OC)ccc5N(C(C)=O)[C@@H](CC)[C@H]4C)nn3)nn2)c2cc(C(=O)OC)ccc2N1C(C)=O (stereo partly drawn) [XX, Dimethyl-4,4′-((2,5,8,11,14-pentaoxapentadecane-1,15-diyl)bis(1H-1,2,3-triazole-4,1-diyl))(2S,2'S,3R,3′R,4S,4'S)-bis(1-acetyl-2-ethyl-3-methyl-1,2,3,4-tetrahydroquinoline-6-carboxylate)] | 1470 | 129 | 11.5
17 | CC[C@H]1[C@@H](C)[C@H](n2cc(-c3ccccc3)nn2)c2cc(C(=O)OC)ccc2N1C(C)=O [Compound 28, Methyl-(2S,3R,4S)-1-acetyl-2-ethyl-3-methyl-4-(4-phenyl-1H-1,2,3-triazol-1-yl)-1,2,3,4-tetrahydroquinoline-6-carboxylate] | 8310 | 567 | 14.7
18 | CC[C@H]1[C@@H](C)[C@H](n2nnc3c2CCC2C(CO)C2CC3)c2cc(C(=O)OC)ccc2N1C(C)=O (stereo partly drawn) [YI, Methyl-(2S,3R,4S)-1-acetyl-2-ethyl-4-(6-(hydroxymethyl)-5,5a,6,6a,7,8-hexahydrocyclopropa[5,6]cycloocta[1,2-d][1,2,3]triazol-1(4H)-yl)-3-methyl-1,2,3,4-tetrahydroquinoline-6-carboxylate] | 33600 | 798 | 42.1
19 | CC[C@H]1[C@@H](C)[C@H](n2cc(-c3ccccc3)nn2)c2cc(C(F)(F)F)ccc2N1C(C)=O [YC, 1-((2S,3R,4S)-2-Ethyl-3-methyl-4-(4-phenyl-1H-1,2,3-triazol-1-yl)-6-(trifluoromethyl)-3,4-dihydroquinolin-1(2H)-yl)ethan-1-one] | – | 22500 | –
